Values belong to the compound of their own block, whether it stands above or below them.
Biological target: T1, human NK-2 receptor (Homo sapiens, UniProt P21452)
T1 construct: expressed in transfected cells; host or cells: Chinese hamster ovary (CHO) cells, membranes
T1 sequence (P21452 1-398): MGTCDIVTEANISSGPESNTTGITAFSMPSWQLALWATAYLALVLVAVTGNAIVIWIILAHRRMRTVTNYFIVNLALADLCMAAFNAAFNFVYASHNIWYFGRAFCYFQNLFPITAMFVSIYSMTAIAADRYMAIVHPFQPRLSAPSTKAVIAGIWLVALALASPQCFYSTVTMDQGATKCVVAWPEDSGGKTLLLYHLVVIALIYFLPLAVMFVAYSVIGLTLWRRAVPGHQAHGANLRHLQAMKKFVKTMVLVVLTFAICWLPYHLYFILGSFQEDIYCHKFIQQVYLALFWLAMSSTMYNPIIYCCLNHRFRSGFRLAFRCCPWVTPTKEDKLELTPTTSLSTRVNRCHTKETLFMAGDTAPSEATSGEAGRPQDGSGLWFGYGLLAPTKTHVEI
Assay: Binding test on membranes of CHO cells transfected with the human ileum NK-2 receptor, radioligand NKA in competition
Settings: CHO cell membranes, radioligand NKA 100 pM, incubation 30 min., 20° C.; for Ki: read-out: pKi (affinity to the human NK-2 receptor) (converted)
Protocol: Assessment of the antagonist activity on NK-2 receptors was performed with binding and functional tests according to prior descriptions in the literature for NK-2 antagonists.
In particular, affinity of the compounds for the human NK-2 receptor was assessed in a binding test using membranes of Chinese hamster ovary (CHO) cells, transfected with the NK-2 receptor of human ileum and the radioligand ['251]NKA (Amersham, aspecific activity 2000 Ci/mmol) at a concentration of 100 pM in competition studies. The substances under examination were tested in a concentration range from 0.01 nM to 10 mM. At the end of incubation (30 min., 20° C.) the samples were filtered and the radioactivity was determined using a gamma-counter.
The data in table 1 were obtained for some compounds of general formula (I) and concern the values of affinity to the human NK-2 receptor: […]

Compound: CN(C)CCCNC(=O)C=C[C@@H](Cc1ccccc1)NC(=O)C1(NC(=O)c2cc3ccccc3s2)CCCC1 [Example 46, (R) Benzo[b]thiophene-2-carboxylic acid {1-[1-benzyl-3-(3-dimethylamino-propylcarbamoyl)-allylcarbamoyl]-cyclopentyl)-amide]
Ki: 0.631 nM

Compound: O=C(NC1(C(=O)N[C@@H](CCCN2CCC(Cc3ccccc3)CC2)Cc2ccccc2)CCCC1)c1cc2ccccc2s1 [Example 50, (S) Benzo[b]thiophene-2-carboxylic acid {1-[1-benzyl-4-(4-benzyl-piperidin-1-yl)-butylcarbamoyl]-cyclopentyl}-amide]
Ki: 0.126 nM

Compound: Cc1ccc2cc(C(=O)NC3(C(=O)N[C@@H](CCC(=O)N4CCN(CC5CCOCC5)CC4)Cc4ccccc4)CCCC3)sc2c1 [Example 51]
Ki: 0.0794 nM

Compound: Cc1ccc2cc(C(=O)NC3(C(=O)N[C@@H](CCCN4CCN(CC5CCOCC5)CC4)Cc4ccccc4)CCCC3)sc2c1 [Example 54, (S) 6-Methyl-benzo[b]thiophene-2-carboxylic acid (1-{1-benzyl-4-[4-(tetrahydro-pyran-4-ylmethyl)-piperazin-1-yl]-butylcarbamoyl}-cyclopentyl)-amide]
Ki: 0.0501 nM

Compound: Cc1ccc2cc(C(=O)NC3(C(=O)N[C@@H](COCCC4CCN(CC5CCOCC5)CC4)Cc4ccccc4)CCCC3)sc2c1 [Example 62]
Ki: 0.501 nM

Compound: (S) 6-Methyl-benzo[b]thiophene-2-carboxylic acid (1-{1-benzyl-4-[4-(2-hydroxy-ethyl)-piperidin-1-yl]-4-oxo-butylcarbamoyl)-cyclopentyl)-amide [Example 53]
pKi (affinity to the human NK-2 receptor): 8.7

The next lines start with the values.

Ki: 0.0794 nM
Compound: Cc1ccc2cc(C(=O)NC3(C(=O)N[C@@H](CCC(=O)N4CCN(C5CCOCC5)CC4)Cc4ccccc4)CCCC3)sc2c1 [Example 52, (S) 6-Methyl-benzo[b]thiophene-2-carboxylic acid (1-{1-benzyl-4-oxo-4-[4-(tetrahydro-pyran-4-yl)-piperazin-1-yl]-butylcarbamoyl}-cyclopentyl)amide]

Ki: 0.1 nM
Compound: Cc1ccc2cc(C(=O)NC3(C(=O)N[C@@H](CCCN4CCN(C(=O)C5CCOCC5)CC4)Cc4ccccc4)CCCC3)sc2c1 [Example 55, (S) 6-Methyl-benzo[b]thiophene-2-carboxylic acid (1-{1-benzyl-4-[4-(tetrahydro-pyran-4-carbonyl)-piperazin-1-yl]-butylcarbamoyl}-cyclopentyl)-amide]

Ki: 0.126 nM
Compound: Cc1ccc2cc(C(=O)NC3(C(=O)N[C@@H](CCCC4CCN(CC5CCOCC5)CC4)Cc4ccccc4)CCCC3)sc2c1 [Example 58, (S) 6-Methyl-benzo[b]thiophene-2-carboxylic acid (1-{1-benzyl-4-[1-(tetrahydro-pyran-4-ylmethyl)-piperidin-4-yl]-butylcarbamoyl}-cyclopentyl)-amide]

From patent US20060223814A1, “Nk-2 antagonist basic linear compounds and formulations containing them” (priority 2003, published 2006)
